Data from US20020077328A1, “Selective cyclooxygenase-2 inhibitors and vasomodulator compounds for generalized pain and headache pain” (priority 2000, published 2002).

Experiment: Solubility of celecoxib and valdecoxib in various solvent liquids
Assay type: physicochemical
Method: Aliquots of a solvent liquid were then added dropwise in approximately 100 mg increments to the solid sample. The resulting mixture was vortexed and/or sonicated between aliquot additions. […] Solubility values preceded by the < symbol denote that, at the particular concentration shown, the mixture was still cloudy, i.e., not all of the drug was fully in dissolved form.

[1] = Labrasol ™ /DGME/propylene glycol laurate 40:40:20 w/w
[2] = Polyethylene glycol 400/water 1:1 w/w
[3] = Polyethylene glycol 400/water 2:1 w/w
[4] = Propylene glycol laurate/Labrasol ™ 1:1 w/w
[5] = Tagat ™ TO/Capmul ™ MCM 1:1 w/w

Solubility (Capmul ™ MCM)	Solubility (DGME/water 1:1 w/w) [mg/g]	Solubility (DGME/water 2:1 w/w) [mg/g]	Solubility (Labrasol ™) [mg/g]	Solubility [1]	Solubility (Polyethylene glycol 400)	Solubility [2] [mg/g]	Solubility [3] [mg/g]	Solubility (Propylene glycol)	Solubility (Propylene glycol laurate) [mg/g]	Solubility [4] [mg/g]	Solubility (Tagat ™ TO)	Solubility [5]	SMILES	also measured
19 − 21 mg/g	3	42	64	288 − 297 mg/g	304 mg/g	<1	6	23 − 41 mg/g	18	58	24 − 40 mg/g	34 − 52 mg/g	Cc1ccc(-c2cc(C(F)(F)F)nn2-c2ccc(S(N)(=O)=O)cc2)cc1 [celecoxib]	Solubility (Arlacel ™ 186): 13 mg/g; Solubility (Cremophor ™ EL): 36 mg/g; Solubility (Ethyl caprylate): 25 mg/g; Solubility (Labrasol ™ /DGME 1:1 w/w): 335 mg/g; Solubility (Labrasol ™ /DGME/propylene glycol laurate 35:35:30 w/w): 266 mg/g; Solubility (Labrasol ™ /DGME/propylene glycol laurate 45:45:10 w/w): 313 − 325 mg/g; Solubility (Miglyol ™ 812): 6 − 12 mg/g; Solubility (Polysorbate 80): 73 mg/g; Solubility (Tagat ™ /Capmul ™ MCM/DGME 35:35:30 w/w): 212 mg/g; Solubility (Tagat ™ /Capmul ™ MCM/DGME 58:12:30 w/w): 274 mg/g; Solubility (Tetraethylene glycol dimethyl ether): 188 mg/g; Solubility (Triethylene glycol monoethyl ether): 170 mg/g
13 mg/g	6	32	34	130 mg/g	50 − 85 mg/g	1	13	10 − 20 mg/g	22	42	23 mg/g	24 mg/g	Cc1onc(-c2ccccc2)c1-c1ccc(S(N)(=O)=O)cc1 [valdecoxib]	Advantage in solubility for DGME over propylene glycol: approximately tenfold; Solubility (Diethylene glycol monoethyl ether (DGME)): 120 mg/g
